Experimental data: PMC11357990, “A first-in-class selective inhibitor of EGFR and PI3K offers a single-molecule approach to targeting adaptive resistance” (Nature Cancer, 2024)

Legend:
Assay in all cases: biochemical
Conditions in all cases: read-out: Binding / ================================================= / % Inhibition of Control Specific Binding
[1] = biological target: T1, 5-HT transporter (h) (antagonist radioligand) (Homo sapiens, UniProt P31645)
T1 construct: gene SLC6A4

[2] = biological target: T2, 5-HT2B (h) (agonist radioligand) (Homo sapiens, UniProt P41595)
T2 construct: gene HTR2B

[3] = biological target: T3, 5-HT3 (h) (antagonist radioligand) (Homo sapiens, UniProt P46098)
T3 construct: gene HTR3A

[4] = biological target: T4, B2 (h) (agonist radioligand) (Homo sapiens, UniProt P30411)
T4 construct: gene BDKRB2

[5] = biological target: CCR1 (h) (agonist radioligand) (Homo sapiens, UniProt P32246)
[6] = biological target: T5, D2L (h) (antagonist radioligand) (Homo sapiens, UniProt P14416)
T5 construct: gene DRD2
T5 sequence (P14416 whole entry): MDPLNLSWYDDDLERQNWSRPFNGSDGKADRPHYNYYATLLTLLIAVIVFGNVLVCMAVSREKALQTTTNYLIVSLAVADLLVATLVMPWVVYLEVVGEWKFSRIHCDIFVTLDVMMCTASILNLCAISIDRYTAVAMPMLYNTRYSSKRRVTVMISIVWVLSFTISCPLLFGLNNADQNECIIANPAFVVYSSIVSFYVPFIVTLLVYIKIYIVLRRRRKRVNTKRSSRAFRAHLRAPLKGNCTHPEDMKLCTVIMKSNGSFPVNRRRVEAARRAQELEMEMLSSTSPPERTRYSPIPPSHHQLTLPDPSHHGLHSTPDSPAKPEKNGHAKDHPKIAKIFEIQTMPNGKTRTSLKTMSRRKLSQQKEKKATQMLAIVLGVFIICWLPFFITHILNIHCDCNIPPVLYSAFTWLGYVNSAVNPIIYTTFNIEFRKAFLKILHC

[7] = biological target: T6, ETA (h) (agonist radioligand) (Homo sapiens, UniProt P25101)
T6 construct: gene EDNRA
T6 sequence (P25101 whole entry): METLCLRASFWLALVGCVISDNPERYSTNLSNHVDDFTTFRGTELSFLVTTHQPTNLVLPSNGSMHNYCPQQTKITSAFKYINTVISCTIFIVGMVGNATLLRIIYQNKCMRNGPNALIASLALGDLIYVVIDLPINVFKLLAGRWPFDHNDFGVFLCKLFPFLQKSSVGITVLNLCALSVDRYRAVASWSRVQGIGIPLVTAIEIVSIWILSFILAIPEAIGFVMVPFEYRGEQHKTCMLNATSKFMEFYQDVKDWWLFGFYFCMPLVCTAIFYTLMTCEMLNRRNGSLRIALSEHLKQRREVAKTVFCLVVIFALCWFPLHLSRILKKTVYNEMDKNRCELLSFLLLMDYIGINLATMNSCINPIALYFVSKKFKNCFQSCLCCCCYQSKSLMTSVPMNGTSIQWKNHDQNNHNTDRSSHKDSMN

[8] = biological target: T7, Estrogen ER alpha (h) (agonist radioligand) (Homo sapiens, UniProt P03372)
T7 construct: gene ESR1

[9] = biological target: T8, GABAA1 (h) (alpha 1,beta 2,gamma 2) (agonist radioligand) (Homo sapiens, UniProt P14867+P47870)
T8 construct: gene GABRA1

[10] = biological target: T9, GABAB(1b) (h) (antagonist radioligand) (Homo sapiens, UniProt Q9UBS5)
T9 construct: gene GABBR1

[11] = biological target: T10, GR (h) (agonist radioligand) (Homo sapiens, UniProt P04150)
T10 construct: gene NR3C1
T10 sequence (P04150 whole entry): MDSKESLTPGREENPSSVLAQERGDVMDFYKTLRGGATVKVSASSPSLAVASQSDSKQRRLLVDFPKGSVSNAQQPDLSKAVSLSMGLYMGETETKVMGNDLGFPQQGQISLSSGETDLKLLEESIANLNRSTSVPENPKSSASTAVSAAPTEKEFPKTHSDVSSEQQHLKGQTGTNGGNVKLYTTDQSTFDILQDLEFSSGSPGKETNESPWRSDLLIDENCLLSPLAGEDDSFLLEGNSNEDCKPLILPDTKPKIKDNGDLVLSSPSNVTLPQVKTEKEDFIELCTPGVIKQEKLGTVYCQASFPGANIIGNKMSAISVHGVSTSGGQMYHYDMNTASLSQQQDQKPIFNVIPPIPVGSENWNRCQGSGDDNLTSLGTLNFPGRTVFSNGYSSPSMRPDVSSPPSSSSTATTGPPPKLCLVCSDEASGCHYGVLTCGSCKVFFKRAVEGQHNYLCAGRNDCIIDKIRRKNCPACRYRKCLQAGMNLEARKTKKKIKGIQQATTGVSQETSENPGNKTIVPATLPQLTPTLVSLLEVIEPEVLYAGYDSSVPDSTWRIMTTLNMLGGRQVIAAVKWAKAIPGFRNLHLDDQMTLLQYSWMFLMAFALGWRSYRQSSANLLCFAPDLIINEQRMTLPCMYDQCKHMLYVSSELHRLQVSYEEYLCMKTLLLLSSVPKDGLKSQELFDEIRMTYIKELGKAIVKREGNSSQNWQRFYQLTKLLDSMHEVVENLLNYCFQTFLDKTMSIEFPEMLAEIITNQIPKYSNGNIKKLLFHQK

[12] = biological target: T11, H1 (h) (antagonist radioligand) (Homo sapiens, UniProt P35367)
T11 construct: gene HRH1

[13] = biological target: T12, H2 (h) (antagonist radioligand) (Homo sapiens, UniProt P25021)
T12 construct: gene HRH2

[14] = biological target: T13, M3 (h) (antagonist radioligand) (Homo sapiens, UniProt P20309)
T13 construct: gene CHRM3
T13 sequence (P20309 whole entry): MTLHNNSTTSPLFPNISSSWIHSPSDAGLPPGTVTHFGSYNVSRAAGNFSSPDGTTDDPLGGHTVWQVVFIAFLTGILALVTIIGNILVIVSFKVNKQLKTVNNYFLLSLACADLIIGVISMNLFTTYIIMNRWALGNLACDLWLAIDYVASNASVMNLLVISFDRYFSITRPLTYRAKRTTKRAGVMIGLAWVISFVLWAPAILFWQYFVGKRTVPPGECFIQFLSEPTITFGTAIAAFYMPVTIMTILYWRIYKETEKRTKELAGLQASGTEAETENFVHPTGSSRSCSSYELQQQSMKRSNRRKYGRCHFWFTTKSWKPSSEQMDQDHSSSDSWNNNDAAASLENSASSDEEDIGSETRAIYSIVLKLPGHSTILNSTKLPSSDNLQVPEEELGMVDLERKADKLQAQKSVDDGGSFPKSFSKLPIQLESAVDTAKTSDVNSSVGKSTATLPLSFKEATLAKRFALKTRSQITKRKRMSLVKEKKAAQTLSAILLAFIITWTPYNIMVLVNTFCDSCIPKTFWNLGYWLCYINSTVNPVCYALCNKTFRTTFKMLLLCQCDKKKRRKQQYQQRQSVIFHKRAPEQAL

[15] = biological target: T14, MAO-A (antagonist radioligand) (Rattus norvegicus, UniProt P21396)
T14 construct: gene Maoa

[16] = biological target: T15, MC4 (h) (agonist radioligand) (Homo sapiens, UniProt P32245)
T15 construct: gene MC4R

[17] = biological target: T16, N muscle-type (h) (antagonist radioligand) (Homo sapiens, UniProt P02708+P07510+Q07001)
T16 construct: gene CHRNA1

[18] = biological target: T17, NK1 (h) (agonist radioligand) (Homo sapiens, UniProt P25103)
T17 construct: gene TACR1

[19] = biological target: T18, PR (h) (agonist radioligand) (Homo sapiens, UniProt P06401)
T18 construct: gene PGR

[20] = biological target: T19, V1a (h) (agonist radioligand) (Homo sapiens, UniProt P37288)
T19 construct: gene AVPR1A

[21] = biological target: T20, Y1 (h) (agonist radioligand) (Homo sapiens, UniProt P25929)
T20 construct: gene NPY1R
T20 sequence (P25929 whole entry): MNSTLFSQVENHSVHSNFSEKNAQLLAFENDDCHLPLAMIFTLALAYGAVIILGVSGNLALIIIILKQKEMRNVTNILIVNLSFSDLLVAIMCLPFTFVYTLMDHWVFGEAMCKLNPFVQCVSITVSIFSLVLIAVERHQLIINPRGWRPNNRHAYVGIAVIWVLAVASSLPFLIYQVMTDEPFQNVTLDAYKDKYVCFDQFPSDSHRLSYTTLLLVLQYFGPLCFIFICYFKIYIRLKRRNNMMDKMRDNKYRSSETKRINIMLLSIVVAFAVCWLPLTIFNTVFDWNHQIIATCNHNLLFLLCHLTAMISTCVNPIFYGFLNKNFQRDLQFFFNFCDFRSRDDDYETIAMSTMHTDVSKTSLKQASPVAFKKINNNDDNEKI

[22] = biological target: T21, alpha 1A (h) (antagonist radioligand) (Homo sapiens, UniProt P35348)
T21 construct: gene ADRA1A

[23] = biological target: T22, alpha 1B (h) (antagonist radioligand) (Homo sapiens, UniProt P35368)
T22 construct: gene ADRA1B

[24] = biological target: T23, alpha 1D (h) (antagonist radioligand) (Homo sapiens, UniProt P25100)
T23 construct: gene ADRA1D
T23 sequence (P25100 whole entry): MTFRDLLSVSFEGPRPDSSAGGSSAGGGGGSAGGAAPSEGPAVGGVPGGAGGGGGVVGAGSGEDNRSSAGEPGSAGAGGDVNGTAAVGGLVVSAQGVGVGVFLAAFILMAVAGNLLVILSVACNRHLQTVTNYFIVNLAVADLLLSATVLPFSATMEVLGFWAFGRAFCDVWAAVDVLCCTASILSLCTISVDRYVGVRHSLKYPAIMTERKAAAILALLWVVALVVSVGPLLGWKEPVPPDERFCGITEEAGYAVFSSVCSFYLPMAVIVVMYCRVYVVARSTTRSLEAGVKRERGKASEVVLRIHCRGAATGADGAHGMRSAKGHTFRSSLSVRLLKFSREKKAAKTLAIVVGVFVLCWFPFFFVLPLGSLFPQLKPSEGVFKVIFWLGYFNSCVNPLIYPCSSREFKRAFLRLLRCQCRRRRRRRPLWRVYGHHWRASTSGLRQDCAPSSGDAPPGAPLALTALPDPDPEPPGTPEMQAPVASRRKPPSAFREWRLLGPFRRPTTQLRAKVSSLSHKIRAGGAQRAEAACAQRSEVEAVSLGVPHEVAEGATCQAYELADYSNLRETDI

[25] = biological target: T24, alpha 2A (h) (antagonist radioligand) (Homo sapiens, UniProt P08913)
T24 construct: gene ADRA2A

[26] = biological target: T25, beta 1 (h) (agonist radioligand) (Homo sapiens, UniProt P08588)
T25 construct: gene ADRB1

[27] = biological target: T26, beta 2 (h) (antagonist radioligand) (Homo sapiens, UniProt P07550)
T26 construct: gene ADRB2

[28] = biological target: T27, mGluR5 (h) (agonist radioligand) (Homo sapiens, UniProt P41594)
T27 construct: gene GRM5
T27 sequence (P41594 whole entry): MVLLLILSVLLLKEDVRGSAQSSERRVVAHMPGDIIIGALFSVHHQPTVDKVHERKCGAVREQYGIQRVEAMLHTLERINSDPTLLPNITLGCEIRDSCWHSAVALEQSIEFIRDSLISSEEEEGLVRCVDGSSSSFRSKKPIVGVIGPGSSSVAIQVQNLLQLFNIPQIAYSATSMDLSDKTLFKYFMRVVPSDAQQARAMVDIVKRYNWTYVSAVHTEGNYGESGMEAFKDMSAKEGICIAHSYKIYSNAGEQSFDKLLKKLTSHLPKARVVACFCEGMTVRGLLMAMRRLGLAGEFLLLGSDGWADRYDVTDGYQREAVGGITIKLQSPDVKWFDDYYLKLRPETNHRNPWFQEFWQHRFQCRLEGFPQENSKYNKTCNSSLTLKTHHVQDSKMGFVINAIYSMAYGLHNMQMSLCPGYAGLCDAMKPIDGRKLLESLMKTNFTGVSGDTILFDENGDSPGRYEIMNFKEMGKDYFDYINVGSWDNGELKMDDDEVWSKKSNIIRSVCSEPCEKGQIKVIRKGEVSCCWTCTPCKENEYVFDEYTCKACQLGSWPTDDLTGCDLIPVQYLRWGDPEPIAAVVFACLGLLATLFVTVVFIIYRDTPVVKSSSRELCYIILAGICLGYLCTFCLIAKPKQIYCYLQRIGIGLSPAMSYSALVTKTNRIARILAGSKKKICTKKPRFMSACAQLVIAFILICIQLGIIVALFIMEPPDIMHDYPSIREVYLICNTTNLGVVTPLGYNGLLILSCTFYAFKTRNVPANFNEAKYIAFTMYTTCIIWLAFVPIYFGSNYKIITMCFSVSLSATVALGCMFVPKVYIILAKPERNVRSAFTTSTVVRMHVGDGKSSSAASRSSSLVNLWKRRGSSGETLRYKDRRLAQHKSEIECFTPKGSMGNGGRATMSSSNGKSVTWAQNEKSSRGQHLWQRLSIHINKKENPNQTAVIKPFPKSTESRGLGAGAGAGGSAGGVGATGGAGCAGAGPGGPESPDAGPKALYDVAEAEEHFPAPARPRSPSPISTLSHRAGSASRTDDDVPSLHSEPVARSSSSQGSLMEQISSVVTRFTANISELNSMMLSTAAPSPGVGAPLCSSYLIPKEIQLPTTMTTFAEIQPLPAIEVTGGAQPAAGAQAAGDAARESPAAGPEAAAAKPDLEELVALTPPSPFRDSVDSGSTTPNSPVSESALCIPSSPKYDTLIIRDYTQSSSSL

[29] = biological target: T28, mu (MOP) (h) (agonist radioligand) (Homo sapiens, UniProt P35372)
T28 construct: gene OPRM1
T28 sequence (P35372 whole entry): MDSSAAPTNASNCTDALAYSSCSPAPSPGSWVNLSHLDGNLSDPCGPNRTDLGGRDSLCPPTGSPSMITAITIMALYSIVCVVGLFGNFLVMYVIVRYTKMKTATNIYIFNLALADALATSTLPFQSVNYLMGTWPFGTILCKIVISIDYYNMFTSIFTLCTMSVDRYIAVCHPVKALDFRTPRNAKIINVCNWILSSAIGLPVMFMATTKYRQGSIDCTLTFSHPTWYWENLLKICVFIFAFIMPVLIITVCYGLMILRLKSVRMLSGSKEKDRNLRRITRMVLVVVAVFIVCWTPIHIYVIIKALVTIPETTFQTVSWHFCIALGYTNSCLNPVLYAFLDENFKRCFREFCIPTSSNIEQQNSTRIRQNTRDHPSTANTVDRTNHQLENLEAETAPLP

[30] = biological target: T29, norepinephrine transporter (h) (antagonist radioligand) (Homo sapiens, UniProt P23975)
T29 construct: gene SLC6A2

C[C@@H](Nc1ncnc2ccc(-c3cnc(Cl)c(NS(C)(=O)=O)c3)cc12)c1ccccc1 [MTX-531, (R)-N-(2-chloro-5-(4-((1-phenylethyl)amino)quinazolin-6-yl)pyridin-3-yl)methane-sulfonamide]
inhibition at 10 µM [1]: -1% | inhibition at 10 µM [2]: 2% | inhibition at 10 µM [3]: 10% | inhibition at 10 µM [4]: -1% | inhibition at 10 µM [5]: 0% | inhibition at 10 µM [6]: -17% | inhibition at 10 µM [7]: 1% | inhibition at 10 µM [8]: 6% | inhibition at 10 µM [9]: -5% | inhibition at 10 µM [10]: -3% | inhibition at 10 µM [11]: 3% | inhibition at 10 µM [12]: -7% | inhibition at 10 µM [13]: -1% | inhibition at 10 µM [14]: -4% | inhibition at 10 µM [15]: 8% | inhibition at 10 µM [16]: 1% | inhibition at 10 µM [17]: 6% | inhibition at 10 µM [18]: -5% | inhibition at 10 µM [19]: -14% | inhibition at 10 µM [20]: 2% | inhibition at 10 µM [21]: 0% | inhibition at 10 µM [22]: 9% | inhibition at 10 µM [23]: 1% | inhibition at 10 µM [24]: 17% | inhibition at 10 µM [25]: 5% | inhibition at 10 µM [26]: 1% | inhibition at 10 µM [27]: -6% | inhibition at 10 µM [28]: 5% | inhibition at 10 µM [29]: 25% | inhibition at 10 µM [30]: 19%
